These results are taken from PMC8487611 (ACS chemical neuroscience, 2021).

The assay concerns the target α3β4 nicotinic acetylcholine receptor (mouse) (Mus musculus, UniProt Q8R493+Q8R4G9). Briefly: two-electrode voltage clamp of Xenopus oocytes, block of ACh. The assay is classed as cell-based. (In two-electrode clamp one electrode senses voltage and the other passes current.)

Chain of α3β4 nicotinic acetylcholine receptor (mouse) (Q8R4G9 26-499): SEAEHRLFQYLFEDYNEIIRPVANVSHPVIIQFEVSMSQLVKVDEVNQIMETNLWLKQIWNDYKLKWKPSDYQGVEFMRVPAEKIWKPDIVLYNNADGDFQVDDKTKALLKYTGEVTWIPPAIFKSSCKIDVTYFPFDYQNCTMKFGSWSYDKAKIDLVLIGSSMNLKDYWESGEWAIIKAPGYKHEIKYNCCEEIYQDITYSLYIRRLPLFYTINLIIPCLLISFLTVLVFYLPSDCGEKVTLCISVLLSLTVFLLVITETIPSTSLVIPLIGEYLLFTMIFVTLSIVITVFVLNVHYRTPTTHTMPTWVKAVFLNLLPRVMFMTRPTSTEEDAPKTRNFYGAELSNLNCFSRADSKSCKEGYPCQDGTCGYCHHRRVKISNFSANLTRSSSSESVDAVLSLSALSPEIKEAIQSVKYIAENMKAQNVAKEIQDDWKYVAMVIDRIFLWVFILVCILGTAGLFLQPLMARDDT
Chain of α3β4 nicotinic acetylcholine receptor (mouse) (Q8R493 21-495): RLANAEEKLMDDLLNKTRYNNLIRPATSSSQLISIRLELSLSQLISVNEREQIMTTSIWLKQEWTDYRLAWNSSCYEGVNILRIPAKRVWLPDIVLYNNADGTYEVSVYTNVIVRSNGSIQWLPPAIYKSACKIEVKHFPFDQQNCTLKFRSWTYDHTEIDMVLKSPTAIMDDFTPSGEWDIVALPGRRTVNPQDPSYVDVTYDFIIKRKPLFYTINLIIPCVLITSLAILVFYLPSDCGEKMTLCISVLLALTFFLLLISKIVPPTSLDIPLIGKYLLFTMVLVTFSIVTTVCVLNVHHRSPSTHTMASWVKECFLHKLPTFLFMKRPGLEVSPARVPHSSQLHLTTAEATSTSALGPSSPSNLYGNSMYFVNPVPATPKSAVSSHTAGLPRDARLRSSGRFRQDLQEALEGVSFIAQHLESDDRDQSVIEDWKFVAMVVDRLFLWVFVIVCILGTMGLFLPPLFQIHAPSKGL

One may read the IC50 as the concentration needed to halve the response being measured. Read a low IC50 as greater potency in that assay. For molleamine C [compound 3], inhibition was half-maximal at 1430 nM (IC50).
